In PubChem BioAssay (NCI):
Where “and” joins values, the source holds several entries; their conditions need not be identical. Identical values can stand only once.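 Method: 48-hour compound exposure of cells in 96-well plates, five concentrations, linear interpolation of endpoints. The concentration for 50% growth inhibition is given as GI50. TGI is the concentration that stops growth completely.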

What was measured:
Assay in all cases: NCI anticancer screen, dose series, 48 h
NCI-H226 lung = system: NCI-H226 lung
EKVX NSCLC = system: EKVX NSCLC
MOLT-4 leukemia = system: MOLT-4 leukemia
786-0 renal = system: 786-0 renal
RPMI-8226 leukemia = system: RPMI-8226 leukemia
SF-295 CNS = system: SF-295 CNS
HCT-116 colon = system: HCT-116 colon
IGROV1 ovarian = system: IGROV1 ovarian
UACC-62 melanoma = system: UACC-62 melanoma
A498 renal = system: A498 renal

Row | SMILES | TGI (NCI-H226 lung) | TGI (EKVX NSCLC) [µM] | TGI (MOLT-4 leukemia) [µM] | TGI (786-0 renal) | TGI (RPMI-8226 leukemia) [µM] | TGI (SF-295 CNS) | TGI (HCT-116 colon) | TGI (IGROV1 ovarian) | TGI (UACC-62 melanoma) | TGI (A498 renal) [µM] | GI50 (NCI-H226 lung) | GI50 (EKVX NSCLC) [µM] | GI50 (MOLT-4 leukemia) [µM] | GI50 (786-0 renal) [µM] | GI50 (RPMI-8226 leukemia) [µM] | GI50 (SF-295 CNS) [µM] | GI50 (HCT-116 colon) [µM] | GI50 (IGROV1 ovarian) [µM] | GI50 (UACC-62 melanoma) [µM] | GI50 (A498 renal) [µM]
1 | CO/N=C/c1cc(OC)c(OC)c(OC)c1 | > 100 µM | > 100 | > 100 | > 100 µM | > 100 | > 100 µM | > 100 µM | > 100 µM | > 100 µM | > 100 | – | – | – | – | – | – | – | – | – | –
2 | COc1ccc2c3c([nH]c2c1[N+](=O)[O-])C(C)=NCC3 | > 100 µM | > 100 | > 100 | > 100 µM | > 100 | > 100 µM | > 100 µM | 77.2 µM | 62.3 µM | > 100 | – | – | – | – | – | – | – | – | – | –
3 | C=CCCCCC/C=C\[C@H](O)C#CC#C/C=C/CO | 31 µM | > 100 | 49.2 | 82.2 µM | 32.2 | > 100 µM | 48.6 µM | 53.7 µM | > 100 µM | 51.9 | 15.2 µM | 52.7 | 17.3 | 29.3 | 14 | 60.3 | 22.6 | 19.4 | 26.2 | 20.3
4 | O=C(/C=C/c1ccccc1O)c1ccccc1O | > 100 µM | > 100 | > 100 | > 100 µM | > 100 | > 100 µM | > 100 µM | > 100 µM | > 100 µM | > 100 | – | – | – | – | – | – | – | – | – | –
5 | COc1ccc(-n2cc(-c3cc(OC)c(OC)c(OC)c3)c(C(=O)C(F)(F)F)c2C)cc1 | > 100 µM | > 100 | > 100 | > 100 µM | > 100 | > 100 µM | > 100 µM | > 100 µM | > 100 µM | > 100 | > 100 µM | 13.9 | 6.02 | > 100 | 4.53 | > 100 | 6.93 | 85.7 | 15.6 | 6.4
6 | O/N=C/C1C(OCc2ccccc2)C(OCc2ccccc2)C(OCc2ccccc2)CN1Cc1ccccc1 (stereo unspecified) | 33.8 µM and 85.2 µM | > 100 | 31.4 | 21.1 µM and > 100 µM | > 100 | 29.5 µM and > 100 µM | 22.6 µM and > 100 µM | 65.9 µM and > 100 µM | 30.5 µM and > 100 µM | > 100 | 13.7 µM and 4.2 µM | – | – | – | – | – | – | – | – | –
7 | CC(C)N(C(=O)C12C3C4C5(C#N)C3C1(C#N)C5C42I)C(C)C (stereo unspecified) | > 100 µM | > 100 | > 100 | > 100 µM | > 66.6 | > 100 µM | 31.5 µM | > 100 µM | > 100 µM | > 100 | – | – | – | – | – | – | – | – | – | –
8 | CCCCCCCCCCCCCC1=NC(C)(C)CN1C(C)C | 3.51 µM | 3.17 | 3.26 | 3.13 µM | 3.03 | 3.15 µM | 2.68 µM | 2.26 µM | 3.2 µM | 4.58 | 1.72 µM | 1.49 | 1.56 | 1.72 | 1.2 | 1.62 | 1.38 | 1.08 | 1.74 | 2.16
9 | CCCCCCCCCCCCOC1C(C(COC2OC(C3COC(C)(C)O3)C3OC(C)(C)OC23)NC(=O)Nc2ccc(C(=O)O)cc2)OC2OC(C)(C)OC21 (stereo unspecified) | 19.2 µM | 10.8 | 8.34 | 5.49 µM | 4.29 | 5.69 µM | 10.8 µM | 4.87 µM | 3.56 µM | 8.53 | 3.45 µM | 2.69 | 3.29 | 2.24 | 1.69 | 2.15 | 2.87 | 2.11 | 1.8 | 2.48
